The text below walks through data of US10766928B2, “Targeted conformationally-constrained kinked endosomal disrupting peptides” (priority 2012, dated 2020).

Converted amounts (≈) assume the structure as drawn. Like-named read-outs stand apart in the source and are kept apart here. Non-standard residues stand in square brackets, D forms with d. Residues, ends and D or L forms follow the SMILES beside them. *: point of attachment. Pentanoyl(5-NH-cholesteryl) = CC(C)CCC[C@@H](C)[C@H]1CC[C@H]2[C@@H]3CC=C4C[C@@H](NCCCCC(=O)*)CC[C@]4(C)[C@H]3CC[C@]12C; PEG3 = NCCOCCOCCOCCC(=O)O; Pra = C#CC[C@H](N)C(=O)O; Aib = CC(C)(N)C(=O)O; Ahx = NCCCCCC(=O)O; βAla = NCCC(=O)O

The nature of series [1]: Thermodynamic solubility in PBS (pH 7.4). Format: physicochemical. The note with it: for solubility thermodynamic at 24 h: phosphate buffered saline. From the text: Values in parentheses represent 95% confidence intervals. N.D., not determined.
Measurements represent duplicate or more replicates, with active peptides subjected to multiple replicates. ND: not determined. The peptide was non-toxic and soluble in cell culture medium at this concentration.

The test system of series [2] is endosomes of Jurkat lymphocytes. Briefly: Endosome disruption in Jurkat lymphocytes: release of carboxyfluorescein from disulfide probe Compound 2, flow cytometry. The note with it: for Efficacy (% of 1): % of the effect of compound 1, calculated span of dose-response curve, ± standard deviation. Here is the method: (§1) The effects of the compounds of the invention on human Juikat leukemia cells were evaluated using flow cytometry-based assays of potency, efficacy, and toxicity. […] Analysis of flow cytometry data by non-linear regression was used to determine IC50 values for potency with the efficacy expressed as a percentage. […] Dose-dependent effects on cellular viability after 48 h at 37° C. in culture were also measured by flow cytometry.
(§2) The # represents the compound number in accordance with Tables A, B, and C. Concentrations of compound stock solutions were determined by absorbance measurements at 280 nm. Efficacy was determined as % change in cellular fluorescence relative to the maximal response of Compound 1, defined as 100%. Potencies and efficacies in Jurkat lymphocytes were measured by flow cytometry after treatment of cells with the compounds listed and the fluorescent probe Compound 2 (2.5 μM) for 14 hours. Toxicity to this cell line was determined by flow cytometry analysis of light scattering and counterstaining with PI after treatment for 48 h at 37° C. in culture. […] N.D., not determined.
Cells were treated with fluorescent molecular probe Compound 2 (2.5 μM) and endosome disruptors for 14 hours at 37° C. Enhanced cellular fluorescence resulting from release of the pH-sensitive fluorophore Compound 3 into the cytoplasm was quantified by flow cytometry.
Natural amino acids are represented by single letter codes. Codes for non-standard elements are as follows: Ch1: (3β-Cholest-5-en-3-yl-ammonio)pentanoyl; Ch2: (Cholester-3-yl)oxy-βAla-βAla; X: ε-Ahx; U: Aib; PB: Pacific Blue fluorophore. O: 3-(2-(2-(2-aminoethoxy)ethoxy)ethoxy)propanyl.

In a further series the test system is Jurkat lymphocytes. The protocol:
as §1, §2

The mark [3] stands for this setting: pH 7.4, Table 1, PBS pH 7.4, 24 hours at 22° C., ±S.D., read-out: Solubility (aq.).
[4] abbreviates: pH 7.4, Table 3, PBS pH 7.4, 24 h at 22° C., read-out: Solubility.
Where [5] appears, read: read-out: Potency, Table 2, EC50 ± standard deviation, Jurkat lymphocytes, disulfide-linked fluorescent probe (2.5 μM), 14 h.
Setting [6] is: read-out: Toxicity, Table 3, IC50, Jurkat, 48 h at 37° C., footnote a: non-toxic and soluble in cell culture medium at this concentration.

Turning to `CC(C)[C@H](NC(=O)[C@@H](NC(=O)[C@@H]1CCCN1C(=O)[C@@H]1CCCN1C(=O)[C@H](Cc1c[nH]c2ccccc12)NC(=O)[C@H](Cc1ccc(O)cc1)NC(=O)[C@H](C)NC(=O)[C@H](Cc1c[nH]c2ccccc12)NC(=O)[C@H](Cc1c[nH]c2ccccc12)NC(=O)C(C)(C)NC(=O)C(C)(C)NC(=O)C(C)(C)NC(=O)C(C)(C)N)C(C)C)C(N)=O` [Compound 44] (H-[Aib][Aib][Aib][Aib]WWAYWPPVV-NH2), the solubility thermodynamic at 24 h in series [1] (setting [3]) and in series [1] (setting [4]) was 22 ± 1 µM (≈ 33.9 µg/mL) each time. Also, the “Efficacy (% of max. 1)” value in series [2] (Table 1, % change in cellular fluorescence relative to maximal response of Compound 1 (100%), Jurkat, 14 hours) was found to be 97%. In addition, in series [2] (Table 2, Jurkat, 14 h), the “Efficacy (% of 1)” value is given as 98 ± 2%. Besides, the EC50 worked out at 5.2 µM in series [2] (read-out: Potency (EC50), Table 1, Jurkat lymphocytes, probe Compound 2 (2.5 μM), 14 hours, 95% confidence interval in neighbouring cell) and 5 ± 1 µM in series [2] (setting [5]). In the series with Jurkat lymphocytes (setting [6]), the IC50 is over 16 µM.

As for `CC(C)[C@H](NC(=O)[C@@H](NC(=O)[C@@H]1CCCN1C(=O)[C@@H]1CCCN1C(=O)[C@H](Cc1ccc(O)cc1)NC(=O)[C@H](Cc1c[nH]c2ccccc12)NC(=O)[C@H](C)NC(=O)[C@H](Cc1c[nH]c2ccccc12)NC(=O)[C@H](Cc1c[nH]c2ccccc12)NC(=O)[C@H](C)NC(=O)[C@H](Cc1c[nH]c2ccccc12)NC(=O)[C@H](Cc1c[nH]c2ccccc12)NC(=O)C(C)(C)NC(=O)C(C)(C)NC(=O)C(C)(C)NC(=O)C(C)(C)N)C(C)C)C(N)=O` [Compound 79] (H-[Aib][Aib][Aib][Aib]WWAWWAWYPPVV-NH2), the solubility thermodynamic at 24 h in series [1] (setting [4]) was determined as 2 ± 1 µM (≈ 3.97 µg/mL). The “Efficacy (% of 1)” value in series [2] (Table 2, Jurkat, 14 h) was 86 ± 5%. The EC50 in series [2] (setting [5]) was found to be 0.22 ± 0.06 µM. The IC50 in the series with Jurkat lymphocytes (setting [6]) is over 16 µM.

`C#CC[C@H](NC(=O)[C@H](CCC(=O)O)NC(=O)[C@H](CCC(=O)O)NC(=O)CCNC(=O)CCCCN[C@H]1CC[C@@]2(C)C(=CC[C@H]3[C@@H]4CC[C@H]([C@H](C)CCCC(C)C)[C@@]4(C)CC[C@@H]32)C1)C(=O)NCCOCCOCCOCCC(=O)NCCOCCOCCOCCC(=O)NC(C)(C)C(=O)NC(C)(C)C(=O)NC(C)(C)C(=O)NC(C)(C)C(=O)N[C@@H](Cc1ccc(O)cc1)C(=O)N[C@@H](Cc1ccc(O)cc1)C(=O)N[C@@H](C)C(=O)N[C@@H](Cc1ccc(O)cc1)C(=O)N[C@@H](Cc1ccc(O)cc1)C(=O)N1CCC[C@H]1C(=O)N1CCC[C@H]1C(=O)N[C@H](C(=O)N[C@H](C(N)=O)C(C)C)C(C)C` [Compound 30, R = BEEZOOUUUUYYAYYPPVV-CONH2] ({Pentanoyl(5-NH-cholesteryl)-βAla}-EE[Pra][PEG3][PEG3][Aib][Aib][Aib][Aib]YYAYYPPVV-NH2): the “Solubility (aq., μM)” value in series [1] (Table 1, PBS pH 7.4, 24 hours at 22° C., ±S.D.) came to 3 ± 1 µM (≈ 8.32 µg/mL). Also, the solubility thermodynamic at 24 h in series [1] (setting [3]) was under 5 µM. This molecule also registered an EC50 in series [2] (14 h) of 0.03 µM. The molecule also had an IC50 in the series on Jurkat lymphocytes (48 h) of 2 µM.

As for `CC(C)CCC[C@@H](C)[C@H]1CC[C@H]2[C@@H]3CC=C4C[C@@H](NCCCCC(=O)NCCC(=O)N[C@@H](CCC(=O)O)C(=O)N[C@@H](CCC(=O)O)C(=O)NCCCCCC(=O)NC(C)(C)C(=O)NC(C)(C)C(=O)NC(C)(C)C(=O)N[C@@H](C)C(=O)N[C@@H](Cc5c[nH]c6ccccc56)C(=O)N[C@@H](C)C(=O)N[C@@H](Cc5ccc(O)cc5)C(=O)N[C@@H](Cc5c[nH]c6ccccc56)C(=O)N5CCC[C@H]5C(=O)N5CCC[C@H]5C(=O)N[C@H](C(=O)N[C@@H](C)C(N)=O)C(C)C)CC[C@]4(C)[C@H]3CC[C@]12C` [Compound 12, R = BEEXUUUAWAYWPPVA-CONH2] ({Pentanoyl(5-NH-cholesteryl)-βAla}-EE[Ahx][Aib][Aib][Aib]AWAYWPPVA-NH2), in series [2] (14 h), the EC50 came out at 0.4 µM. In the series with Jurkat lymphocytes (48 h), this molecule returned an IC50 of 14 µM.

For `CC(C)CCC[C@@H](C)[C@H]1CC[C@H]2[C@@H]3CC=C4C[C@@H](NCCCCC(=O)NCCC(=O)N[C@@H](CCC(=O)O)C(=O)N[C@@H](CCC(=O)O)C(=O)NCCCCCC(=O)N[C@@H](C)C(=O)N[C@@H](C)C(=O)N[C@@H](C)C(=O)N[C@@H](Cc5c[nH]c6ccccc56)C(=O)N[C@@H](Cc5c[nH]c6ccccc56)C(=O)N[C@@H](C)C(=O)N[C@@H](Cc5ccc(O)cc5)C(=O)N[C@@H](Cc5c[nH]c6ccccc56)C(=O)N5CCC[C@H]5C(=O)N5CCC[C@H]5C(=O)N[C@H](C(=O)N[C@@H](C)C(N)=O)C(C)C)CC[C@]4(C)[C@H]3CC[C@]12C` [Compound 7, R = BEEXAAAWWAYWPPVA-CONH2] ({Pentanoyl(5-NH-cholesteryl)-βAla}-EE[Ahx]AAAWWAYWPPVA-NH2), the EC50 in series [2] (14 h) was determined as 1 µM. In the series on Jurkat lymphocytes (48 h), this molecule came in with an IC50 of 16 µM.

In series [2] (14 h), `CC(C)CCC[C@@H](C)[C@H]1CC[C@H]2[C@@H]3CC=C4C[C@@H](NCCCCC(=O)NCCC(=O)N[C@@H](CCC(=O)O)C(=O)N[C@@H](CCC(=O)O)C(=O)NCCCCCC(=O)NC(C)(C)C(=O)NC(C)(C)C(=O)NC(C)(C)C(=O)N[C@@H](Cc5c[nH]c6ccccc56)C(=O)N[C@@H](Cc5c[nH]c6ccccc56)C(=O)N[C@@H](C)C(=O)N[C@@H](Cc5ccc(O)cc5)C(=O)N[C@@H](Cc5c[nH]c6ccccc56)C(=O)N5CCC[C@H]5C(=O)N5CCC[C@H]5C(=O)N[C@H](C(N)=O)C(C)C)CC[C@]4(C)[C@H]3CC[C@]12C` [Compound 11, R = BEEXUUUWWAYWPPV-CONH2] ({Pentanoyl(5-NH-cholesteryl)-βAla}-EE[Ahx][Aib][Aib][Aib]WWAYWPPV-NH2) showed an EC50 of 0.8 µM. Moreover, the IC50 with Jurkat lymphocytes (48 h) worked out at 15 µM.

In series [2] (14 h), `CC(C)CCC[C@@H](C)[C@H]1CC[C@H]2[C@@H]3CC=C4C[C@@H](NCCCCC(=O)NCCC(=O)N[C@@H](CCC(=O)O)C(=O)N[C@@H](CCC(=O)O)C(=O)NCCCCCC(=O)NCCCCCC(=O)NC(C)(C)C(=O)NC(C)(C)C(=O)NC(C)(C)C(=O)NC(C)(C)C(=O)N[C@@H](Cc5ccc(O)cc5)C(=O)N[C@@H](Cc5ccc(O)cc5)C(=O)N[C@@H](Cc5ccc(O)cc5)C(=O)N[C@@H](Cc5ccc(O)cc5)C(=O)N[C@@H](Cc5ccc(O)cc5)C(=O)N5CCC[C@H]5C(=O)N5CCC[C@H]5C(=O)N[C@H](C(=O)N[C@@H](C)C(N)=O)C(C)C)CC[C@]4(C)[C@H]3CC[C@]12C` [Compound 24, R = BEEXXUUUUYYYYYPPVA-CONH2] ({Pentanoyl(5-NH-cholesteryl)-βAla}-EE[Ahx][Ahx][Aib][Aib][Aib][Aib]YYYYYPPVA-NH2) returned an EC50 of 0.09 µM. The IC50 in the series on Jurkat lymphocytes (48 h) stood at 5 µM.

Turning to `CC(C)CCC[C@@H](C)[C@H]1CC[C@H]2[C@@H]3CC=C4C[C@@H](NCCCCC(=O)NCCC(=O)N[C@@H](CCC(=O)O)C(=O)N[C@@H](CCC(=O)O)C(=O)NCCCCCC(=O)NC(C)(C)C(=O)NC(C)(C)C(=O)NC(C)(C)C(=O)NC(C)(C)C(=O)N[C@@H](Cc5c[nH]c6ccccc56)C(=O)N[C@@H](Cc5c[nH]c6ccccc56)C(=O)N[C@@H](C)C(=O)N[C@@H](Cc5ccc(O)cc5)C(=O)N[C@@H](Cc5c[nH]c6ccccc56)C(=O)N5CCC[C@H]5C(=O)N5CCC[C@H]5C(=O)N[C@H](C(=O)N[C@@H](C)C(N)=O)C(C)C)CC[C@]4(C)[C@H]3CC[C@]12C` [Compound 20, R = BEEXUUUUWWAYWPPVA-CONH2] ({Pentanoyl(5-NH-cholesteryl)-βAla}-EE[Ahx][Aib][Aib][Aib][Aib]WWAYWPPVA-NH2), in series [2] (14 h), the EC50 worked out at 0.1 µM. In the series on Jurkat lymphocytes (48 h), this molecule displayed an IC50 of 15 µM.

In series [2] (14 h), `CC(C)CCC[C@@H](C)[C@H]1CC[C@H]2[C@@H]3CC=C4C[C@@H](NCCCCC(=O)NCCC(=O)N[C@@H](CCC(=O)O)C(=O)N[C@@H](CCC(=O)O)C(=O)NCCCCCC(=O)NCCCCCC(=O)N[C@@H](C)C(=O)N[C@@H](C)C(=O)N[C@@H](C)C(=O)N[C@@H](Cc5c[nH]c6ccccc56)C(=O)N[C@@H](Cc5c[nH]c6ccccc56)C(=O)N[C@@H](C)C(=O)N[C@@H](Cc5ccc(O)cc5)C(=O)N[C@@H](Cc5c[nH]c6ccccc56)C(=O)N5CCC[C@H]5C(=O)N5CCC[C@H]5C(=O)N[C@H](C(=O)N[C@@H](C)C(N)=O)C(C)C)CC[C@]4(C)[C@H]3CC[C@]12C` [Compound 8, R = BEEXXAAAWWAYWPPVA-CONH2] ({Pentanoyl(5-NH-cholesteryl)-βAla}-EE[Ahx][Ahx]AAAWWAYWPPVA-NH2) returned an EC50 of 0.4 µM. In the series with Jurkat lymphocytes (48 h), the IC50 was found to be 9 µM.
